The target in one data set is C4. The data set is described as follows: Kinetic analysis using surface plasmon resonance (Biacore T200), immobilized C4. Particulars: Table 7; MGSSHHHHHHGSS-[Y#####]-A. The class given is binding. How it is done: Kinetic constants (ka and kd) and affinities (KD) were determined for His6-tagged Y variants using a Biacore T200 instrument (GE Healthcare). Target proteins C4, IL-6 and insulin, respectively, were immobilized in separate flow cells on the carboxylated dextran layer of different CM5 chip surfaces (GE Healthcare). Immobilization was performed using amine coupling chemistry according to the manufacturer's protocol and PBS pH 7.4 supplemented with 0.1 Tween20 (PBST 0.1%) as running buffer. The ligand immobilization levels on the surfaces were 3280-8830 RU for C4, 495-1184 RU for IL-6, and 270-282 RU for insulin. One flow cell surface on each chip was activated and deactivated for use as blank during analyte injections. In the kinetic experiment, PBST 0.1% was used as running buffer at a flow rate of 30 μl/min. The analytes, i.e. Y variants, were each diluted in PBST 0.1 buffer at concentrations of 1000, 500, 100, 50 and 10 nM and injected for 5 min, followed by dissociation in running buffer for 3 min. After dissociation, the surfaces were regenerated with one injection of 30 μl 10 mM HCl. Kinetic constants were calculated from the sensorgrams using the Langmuir 1:1 model of Biacore T200 Evaluation software 2.0 (GE Healthcare).
Produced Y variants were subjected to CD and SPR analyses according to the methods described in Example 1.
The Y variants were cloned, produced and characterized according to the general methods described in Example 1. Produced Y variants with point mutations and/or N-terminal or C-terminal extensions were subjected to CD and SPR analyses as described in Example 1.
Produced Y variants were subjected to CD and SPR analyses according to the methods described in Example 1. In addition, CD spectra of selected IL-6 binding variants were also recorded at 60, 70, 80 and 90° C.

A short description of data set [1]: Circular dichroism spectroscopy analysis (CD spectra, variable temperature measurement, refolding). In kind it is physicochemical. Particulars: Table 7; MGSSHHHHHHGSS-[Y#####]-A. Summed up:
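Y variants at 0.5 mg/ml in PBS were scanned from 250 to 195 nm at 20° C. in a 1 mm cell. Tm came from the 221 nm signal during heating from 20 to 90° C. at 5° C./min, and a second 20° C. spectrum after heating assessed refolding. Selected IL-6 binders were also recorded at 60, 70, 80 and 90° C.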
A general note: Circular dichroism is the unequal absorption of left and right circularly polarised light.

Data set [2] can be described thus: Fraction of soluble product on expression in E. coli, estimated from SDS-PAGE. In kind it is physicochemical. Conditions: Table 7; Ylib002Naive.I selection; MGSSHHHHHHGSS-[Y#####]-A. The method, boiled down: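 E. coli T7E2 cultures with 50 μg/ml kanamycin were grown at 30-37 °C (EnPresso), induced with 0.5 mM IPTG at OD600 ~10 and harvested after 16 h. Alternatively, cultures were grown at 37 °C in TSB-YE, induced with 0.2 mM IPTG at OD600=2 and harvested after 5 h. Soluble and insoluble fractions were estimated by SDS-PAGE.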

Usually Kd stands for the constant that tells how readily two partners part at equilibrium. Low readings indicate a tighter complex, high ones a looser complex. At C4, “Y02309: C4 binding Y variant from Ylib002Naive.I, SEQ ID NO:35 (LAEAKEAAIAELDSKGVGADLIKKIQKAESVEGVQFWKQEILATLPA; Engineered C4 binding Y variant)” showed an equilibrium dissociation constant (Kd) of 70 nM, a ka of 36000 M⁻¹ s⁻¹ and a kd of 0.0025 s⁻¹. In addition, the Tm in data set [1] is 56 °C. Further, the Estimated soluble fraction in data set [2] is 100%.
For “Y02330: C4 binding Y variant from Ylib002Naive.I, SEQ ID NO:37 (LAEAKEAAIAELDSKGVGAELIKKIQHAESVEGVQFWKQEILAYLPA; Engineered C4 binding Y variant)”, in that order: 48 nM, 96000 M⁻¹ s⁻¹, 0.0046 s⁻¹, 49 °C and 100%.
For “Y02337: C4 binding Y variant from Ylib002Naive.I, SEQ ID NO:38 (LAEAKEAAIAELDSKGVGAAEIKWIQHASTVEGVQGRKQQILAELPA; Engineered C4 binding Y variant)”, in that order: 1900 nM, 420000 M⁻¹ s⁻¹, 0.81 s⁻¹, 31 °C and 100%.
For “Y02358: C4 binding Y variant from Ylib002Naive.I, SEQ ID NO:39 (LAEAKEAAIAELDSKGVGADDIKLIQDAPSVEGVQEIKQFILAQLPA; Engineered C4 binding Y variant)”, in that order: 16 nM, 90000 M⁻¹ s⁻¹, 0.0014 s⁻¹, 51 °C and 100%.
